Source: patent publication US20050112728A1, “Adenosylmethionine synthetase from streptomyces sp gene sequences coding the same and method for mass production for secondary metabolites including antibiotics thereof” (priority 2001, published 2005)

Legend:
S. lividans TK23 [1] = experiment: Effect of externally added SAM on productivity of actinorhodin; type: cell-based, Streptomyces lividans; conditions: wild type S. lividans TK23, 1 mM commercially available SAM, FIG. 5
Protocol: Based on the finding that in vivo over-expressed SAM positively affects production yield of actinorhodin in S. lividans TK23, an effect of SAM on productivity of actinorhodin was investigated when commercially available SAM is added directly to culture medium containing S. lividans TK23. As such, wild type S. lividans TK23 was treated with 1 mM of commercially available SAM.

S. avermitilis = experiment: Effect of SAM on avermectin production (Exp. 7); type: cell-based; conditions: 1 mM SAM, incubation for 5 days, 25° C.
Protocol: (§1) Each Streptomyces species was incubated in its corresponding culture medium according to Table 1, and treated with 1 mM of SAM (Sigma, USA). After incubation for 5 days, antibiotic concentration was measured in each culture medium.

S. cinnamonensis = experiment: Effect of SAM on monensin production (Exp. 8); type: cell-based; conditions: 1 mM SAM, incubation for 5 days, 30° C.
Protocol: as §1

S. spectabilis = experiment: Effect of SAM on spectinomycin production (Exp. 9); type: cell-based; conditions: 1 mM SAM, incubation for 5 days, 30° C.
Protocol: as §1

S. peucetius = experiment: Effect of SAM on doxorubicin production (Exp. 10); type: cell-based; conditions: 1 mM SAM, incubation for 5 days, 30° C.
Protocol: as §1

S. griseus = experiment: Effect of SAM on streptomycin production (Exp. 11); type: cell-based; conditions: 1 mM SAM, incubation for 5 days, 30° C.
Protocol: as §1

S. aureofaciens [2] = experiment: Effect of SAM on tetracycline production (Exp. 12); type: cell-based; conditions: 1 mM SAM, incubation for 5 days, 28° C.
Protocol: as §1

S. aureofaciens [3] = experiment: Effect of SAM on chlortetracycline production (Exp. 13); type: cell-based; conditions: 1 mM SAM, incubation for 5 days
Protocol: as §1

[4] = Assay for activity of SAM-s (HPLC analysis of reaction products); type: biochemical, Streptomyces spectabilis ATCC 27741; conditions: protein expressed in E. coli, 5 mM ATP, 5 mM methionine, 120 min at 30° C.
Protocol: In order to analyze activity of “SAM-s”, the gene encoding “SAM-s” was expressed in E. coli, and the resulting translational product, “SAM-s”, was then isolated.
To express the gene encoding “SAM-s” in E. coli, the gene was inserted into a pET-21a vector, and then introduced into E. coli BL21. The expressed gene product, “SAM-s” was isolated using a His-Tag purification system. Thereafter, 10 to 50 μl of the enzyme solution containing the protein “SAM-s” was added to a reaction mixture containing 100 mM of Tris-HCl, 200 mM of KCl, 10 mM of MgCl2, 1 mM DTT, 5 mM ATP, and 5 mM methionine, followed by incubation for 120 min at 30° C. After the incubation, reaction products were analyzed through HPLC using Reverse C18 column. In this regard, the column loaded with sample was initially equilibrated with a solution of 0.1 M of NaH2PO4/acetonitrile at a ratio of 98:2 (V/V), pH 2.65. Then, a second solution comprising 0.15 M NaH2PO4/acetonitrile at a ratio of 74:26 (V/V) was applied with continuous mixing with the first solution, forming a concentration gradient.

S. lividans TK23 [5] = experiment: Actinorhodin production in S. lividans TK23 transformed with pSAM-s; type: cell-based, Streptomyces lividans; conditions: over-expression of SAM-s, incubation for 7 days at 28° C., FIG. 4
Protocol: The gene encoding “SAM-s” was first inserted into pWHM3, which is a shuttle vector between E. coli and Streptomyces species, giving an expression vector pSAM-s. The plasmid pSAM-s was then introduced into S. lividans TK23. The resulting transformant, Streptomyces lividans TK-23 harboring pSAM-s, was deposited in the Korean Culture Center of Microorganisms with accession No. KCCM 10397 on Jul. 2, 2002. The transformant was incubated in one liter of a medium including 50 g of glycerol, 5 g of glutamic acid, 21 g of morpholinopropane sulfonic acid, 200 mg of MgSO47H2O, 100 mg of CaCl22H2O, 100 mg NaCi, 82 mg KH2PO4, 9 mg FeSO47H2O, and 2 ml of trace element solution, adjusted to pH 6.5. During incubation for 7 days at 28° C., production yield of actinorhodin, which is a main antibiotic produced from S. lividans TK23, was analyzed.

C[S+](CC[C@H](N)C(=O)O)C[C@H]1O[C@@H](n2cnc3c(N)ncnc32)[C@H](O)[C@@H]1O (stereo partly drawn) [SAM, S-adenosyl-L-methionine]
actinorhodin production versus control not treated with SAM (S. lividans TK23 [1]): produces more actinorhodin | Production amount of a treatment group, Avermectin (S. avermitilis): 25 µg/mL | Production amount of a treatment group, Monensin (S. cinnamonensis): 180 µg/mL | Production amount of a treatment group, Spectinomycin (S. spectabilis): 35 µg/mL | Production amount of a treatment group, Doxorubicin (S. peucetius): 300 µg/mL | Production amount of a treatment group, Streptomycin (S. griseus): 602 µg/mL | Production amount of a treatment group, Tetracycline (S. aureofaciens [2]): 188 µg/mL | Production amount of a treatment group, Chlortetracycline (S. aureofaciens [3]): 130 µg/mL

B1: SAM-s: enzyme catalyzing SAM biosynthesis from Streptomyces spectabilis ATCC 27741, SEQ ID NO. 2 (protein)
chain: MSRRLFTSESVTEGHPDKIADQISDTILDALLREDPTSRVAVETLITTGLVHVAGEVTTKAYAPIAQLVREKILEIGYDSSKKGFDGASCGVSVSIGAQSPDIAQGVDTAYESRVEGDEDELDRQGAGDQGLMFGYACDETPELMPLPIHLAHRLSRRLSEVRKNGTIPYLRPDGKTQVTIEYDGDKAVRLDTVVVSSQHASDIDLESLLAPDIREFVVEPELKALVEDGIKLVVEPELKALVEDGIKLETEGYRLLVNPTGRFEIGGPMGDAGLTGRKIIIDTYGGMSRHGGGAFSGKDPSKVDRSAAYAMRWVAKNVVAAGLASRCEVQVAYAIGKAEPVGLFVETFGTNTIDTDKIEQAISEVFDLRPAAIIRSLDLLRPIYSQTAAYGHFGRSLPEFTWEKTDRVDALRKAAGLES
modifications: Steptomyces spectabilis ATCC 27741
activity to synthesize SAM [4]: has an activity to synthesize SAM | production of actinorhodin in the transformant in comparison with wild type S. lividans (S. lividans TK23 [5]): over six times
